Reference: PMC7018803, “A randomized, placebo-controlled, phase 1 study to evaluate the effects of TAK-063 on ketamine-induced changes in fMRI BOLD signal in healthy subjects” (Psychopharmacology, 2019)

Columns and labels:
healthy male subjects [1] = test: Ketamine-induced changes in fMRI BOLD signal during working memory task (AX-CPT); assay type: in vivo, human
Description: (§1) Subjects checked in on day − 1 of each treatment period during which vital signs, electrocardiogram (ECG), and laboratory safety tests were repeated. On day 1 of each treatment period, subjects received a 3-, 10-, or 30-mg TAK-063 dose or placebo tablets. Participants then relaxed, slept, or watched movies while remaining in the research environment. Ketamine (0.12 mg/kg intravenous bolus over 60 s followed by a continuous infusion of 0.31 mg/kg/h over approximately 150 min) was administered 4 h after TAK-063 or placebo (Fig. 1). This ketamine dose was based on a previous study that achieved steady-state concentrations of 75 ng/mL and provided a robust BOLD signal with minimal psychotomimetic symptoms (De Simoni et al. [2013]).
The scanning protocol for the current study was very comprehensive and included multiple MR approaches. This publication reports the BOLD fMRI data for the working memory task, but also resting state fMRI. The magnetic scanning portion of the neuroimaging test battery was initiated 20 min before ketamine dosing. Imaging was performed using a 3 Tesla Siemens Trio scanner. The MR scanning protocol was initiated 20 min before ketamine dosing; prior to scanning, a structural magnetization prepared rapid gradient echo (MPRAGE) scan was collected. As part of the scanning protocol, each subject received 20 min of scanning − 10 min arterial spin labeling (ASL) plus 10 min resting BOLD prior to ketamine infusion. After ketamine infusion, the resting state fMRI BOLD acquisition continued for an additional 10 min. Next, a Spatial Working Memory task-induced fMRI BOLD acquisition was performed for 15 min. Following these BOLD acquisitions, another 10 min ASL scan was acquired and a 10-min T1 relaxometry scan was conducted. The MR scanning sequence ended with a 5-min MPRAGE acquisition. […]
The functional imaging analyses for the working memory task was performed using SPM8 (Wellcome Department of Cognitive Neurology, London, UK). […] Data from each subject for each task were analyzed with a fixed box-car function convolved with a model hemodynamic response function. […]

healthy male subjects [2] = test: Resting state fMRI BOLD signal before ketamine infusion; assay type: in vivo, human; conditions: 3-30 mg
Description: as §1
The scanning protocol for the current study was very comprehensive and included multiple MR approaches. This publication reports the BOLD fMRI data for the working memory task, but also resting state fMRI. The magnetic scanning portion of the neuroimaging test battery was initiated 20 min before ketamine dosing. Imaging was performed using a 3 Tesla Siemens Trio scanner. The MR scanning protocol was initiated 20 min before ketamine dosing; prior to scanning, a structural magnetization prepared rapid gradient echo (MPRAGE) scan was collected. […]

anesthetized rats = system: anesthetized rats; design: method as in Tomimatsu et al. [2016]; conditions: ref Tomimatsu et al. [2016], cited from earlier work
[3] = system: individuals with schizophrenia; design: method as in Macek et al. [2017]; conditions: 20 mg; 6-week phase 2 study; ref Macek et al. [2017]; cited from earlier work
healthy male subjects [4] = test: Ketamine-induced changes in fMRI BOLD signal during resting state; assay type: in vivo, human
Description: as §1
The scanning protocol for the current study was very comprehensive and included multiple MR approaches. This publication reports the BOLD fMRI data for the working memory task, but also resting state fMRI. The magnetic scanning portion of the neuroimaging test battery was initiated 20 min before ketamine dosing. Imaging was performed using a 3 Tesla Siemens Trio scanner. The MR scanning protocol was initiated 20 min before ketamine dosing; prior to scanning, a structural magnetization prepared rapid gradient echo (MPRAGE) scan was collected. As part of the scanning protocol, each subject received 20 min of scanning − 10 min arterial spin labeling (ASL) plus 10 min resting BOLD prior to ketamine infusion. After ketamine infusion, the resting state fMRI BOLD acquisition continued for an additional 10 min. Next, a Spatial Working Memory task-induced fMRI BOLD acquisition was performed for 15 min. Following these BOLD acquisitions, another 10 min ASL scan was acquired and a 10-min T1 relaxometry scan was conducted. The MR scanning sequence ended with a 5-min MPRAGE acquisition.
Fifty sequential gradient-echo echoplanar images (EPIs) sensitive to blood oxygenation level-dependent (BOLD) signal were collected in contiguous slices of 6-mm thickness, with 3000-ms repetition time, 40-ms echo time, 20 × 20-cm field of view, a 64 × 64 image matrix, 70° flip angle, and an in-plane resolution of 3 × 3 mm. A working memory challenge based on the expectancy A-X Continuous Performance Test (AX-CPT) paradigm was presented. The AX-CPT task was implemented in Eprime and presents 144 trials in four blocks of 36 trials. Before scanning, participants practiced the task (Barch et al. [2001]; MacDonald et al. [2003]).
We conducted a number of pre-processing steps to standardize examination of data after acquisition. These steps included (a) using the anatomical image (T1 weighted MPRAGE acquired for each subject at the beginning of the imaging session) to determine the parameters for spatial normalization to the EPI template image supplied with statistical parametric mapping (SPM) using a 12-parameter transformation; (b) registering functional images to correct for subject movement during the experimental paradigm; (c) normalizing functional images to transform images from analyzed subjects into the same standard space; (d) smoothing images (8-mm full width at half maximum [FWHM]) to minimize normalization artifacts and improve signal to noise ratio; (e) applying a high pass filter of 1200 s to the data following spatial smoothing to minimize the influence of very low frequency noise present in fMRI BOLD data without distorting the ketamine response profile. […]

[5] = Pharmacokinetics of TAK-063 in plasma after single oral dose; assay type: in vivo, human
[6] = system: patients with schizophrenia; conditions: cited from earlier work
[7] = system: phosphodiesterase 10A (PDE10A); design: method as in Seeger et al. [2003]; Suzuki et al. [2015]; conditions: ref Seeger et al. [2003]; Suzuki et al. [2015]; cited from earlier work

**Q.** For `COc1cn(-c2ccc(-n3cccn3)cc2F)nc(-c2ccnn2-c2ccccc2)c1=O` [TAK-063], which “effect size in right substantia nigra, left thalamus and left ventrolateral prefrontal cortex” value (healthy male subjects [1]; 10 mg, working memory task, small non-negative effects) is on record?
**A.** < 0.15

**Q.** What about the “effect in left amygdala” value (healthy male subjects [1]; 30 mg, working memory task) of the same molecule?
**A.** small non-negative effect

**Q.** And the “effect on Cohen's effect size for fMRI BOLD signal during working memory task” value (healthy male subjects [1]; across all doses)?
**A.** decreased the Cohen’s effect size for fMRI BOLD signal in many brain regions

**Q.** What about the “effects on fMRI BOLD signal during the resting state before ketamine infusion” value (healthy male subjects [2]) of the same molecule?
**A.** region-specific effects

**Q.** What about the “ketamine-induced increases in percent BOLD signal change in cortical regions” value (anesthetized rats; anesthetized rats, hippocampus, cingulate and retrosplenial cortex) of the same molecule?
**A.** reduced

**Q.** And the “percent BOLD signal change during the resting state in caudate putamen and substantia nigra” value (anesthetized rats; rat)?
**A.** increased

**Q.** What about the “change from baseline in PANSS score at week 6 vs placebo (primary endpoint)” value [3] of the same molecule?
**A.** did not meet its primary endpoint

**Q.** And the “effect sizes at the 10-mg dose” value (healthy male subjects [4]; 10 mg, ketamine-induced BOLD changes, resting state)?
**A.** generally smaller relative to the effects of other dose groups

**Q.** And the “effect on ketamine-induced changes in resting state fMRI BOLD signals” value (healthy male subjects [4]; many key regions examined, 3-30 mg)?
**A.** meaningful effect attenuating ketamine-induced changes

**Q.** What about the “Dose proportionality of Cmax and AUC” value ([5]; dose range 3-30 mg) of the same molecule?
**A.** close to dose proportional increase in exposure

**Q.** And the median tmax ([5]; single oral dose, plasma, 3-30 mg)?
**A.** 3 h

**Q.** And the “safety and tolerability in clinical studies” value ([6]; ref Goldsmith et al. [2017], Tsai et al. [2016])?
**A.** safe and well tolerated

**Q.** What about the “effects in patients with schizophrenia” value ([6]; ref Macek et al. [2016a], [b]) of the same molecule?
**A.** increases in electroencephalogram (EEG) gamma power, improvements in mismatch negativity, and some improvements in cognition

**Q.** What about the PDE10A inhibition [7] of the same molecule?
**A.** selective inhibitor
